In patent US20260091020A1, “TREATMENT OF ACUTE CANNABINOID OVERDOSE” (Anebulo Pharmaceuticals, Inc., priority 2022, published 2026):
Where two headings read alike, the source gives them in different places.

Test: Plasma PK of ANEB-001 and THC, 50 and 100 mg oral Compound 1 with THC (Example 2)
Type: in vivo, human
Conditions: for concentration at 0 h / concentration at 0.33 h / concentration at 0.67 h / concentration at 1 h / concentration at 2 h / concentration at 3 h / concentration at 4 h / concentration at 5 h / concentration at 24 h / AUC(0-t) / Cmax / Tmax: human, in vivo; for Tmax: read-out: THC plasma tmax, Median
Description: A phase 2 clinical study was conducted using the design outlined in FIG. 1. Briefly, 60 adult healthy volunteers ages 18-45 (20 per arm) were selected for a randomized, double blind placebo-controlled study. Volunteers were divided into three groups: (1) THC (Δ9-Tetrahydrocannabinol, 10.5 mg)+placebo; (2) THC (10.5 mg)+Compound 1 (50 mg); and (3) THC (10.5 mg)+Compound 1 (100 mg). […] A followup evaluation was also performed after 14 days. Primary endpoints included inhibition of central nervous system effects of THC using (a) visual analog scale “feeling high”; (b) visual analog scale “alertness”; (c) body sway; (d) heart rate. Secondary endpoints included additional efficacy metrics, safety/tolerability, PK, and PK/PD correlations.
Following the general methods of Example 1, pharmacodynamic properties were measured for Compound 1 (FIGS. 13A-13F).

[1] = 10 mg THC + 50 mg ANEB-001, read-out: THC Concentration in Plasma, Mean
[2] = 10 mg THC + 50 mg ANEB-001, read-out: THC Concentration in Plasma, Median
[3] = 10 mg THC + 100 mg ANEB-001, read-out: THC Concentration in Plasma, Mean
[4] = 10 mg THC + 100 mg ANEB-001, read-out: THC Concentration in Plasma, Median
[5] = 10 mg THC + Placebo, read-out: THC Concentration in Plasma, Mean
[6] = 10 mg THC + Placebo, read-out: THC Concentration in Plasma, Median

CCCCCc1cc(O)c2c(c1)OC(C)(C)[C@@H]1CCC(C)=C[C@@H]21 [THC, Δ9-tetrahydrocannabinol]
THC plasma tlag, Median (10 mg THC + 50 mg ANEB-001): 0.00 h
THC plasma AUClast, Mean (10 mg THC + 100 mg ANEB-001): 6.128 ng·h/mL
THC plasma tlag, Median (10 mg THC + 100 mg ANEB-001): 0.00 h
THC plasma AUClast, Mean (10 mg THC + Placebo): 5.722 ng·h/mL
THC plasma Cmax, Median (10 mg THC + Placebo): 2.81 ng/mL
THC plasma tlag, Median (10 mg THC + Placebo): 0.00 h
concentration at 0 h [1]: 0 ng/mL
concentration at 0 h [2]: 0 ng/mL
concentration at 0.33 h [1]: 1.27 ng/mL
concentration at 0.33 h [2]: 0.738 ng/mL
concentration at 0.67 h [1]: 2.9 ng/mL
concentration at 0.67 h [2]: 2.41 ng/mL
concentration at 1 h [1]: 2.76 ng/mL
concentration at 1 h [2]: 2.6 ng/mL
concentration at 2 h [1]: 1.4 ng/mL
concentration at 2 h [2]: 1.18 ng/mL
concentration at 3 h [1]: 0.721 ng/mL
concentration at 3 h [2]: 0.689 ng/mL
concentration at 4 h [1]: 0.432 ng/mL
concentration at 4 h [2]: 0.379 ng/mL
concentration at 5 h [1]: 0.287 ng/mL
concentration at 5 h [2]: 0.264 ng/mL
concentration at 24 h [1]: 0.00555 ng/mL
concentration at 24 h [2]: 0 ng/mL
AUC(0-t) (10 mg THC + 50 mg ANEB-001, read-out: THC plasma AUClast, Geometric Mean): 5.65 ng·h/mL
AUC(0-t) (10 mg THC + 50 mg ANEB-001, read-out: THC plasma AUClast, Mean): 5.98 ng·h/mL
AUC(0-t) (10 mg THC + 50 mg ANEB-001, read-out: THC plasma AUClast, Median): 5.51 ng·h/mL
Cmax (10 mg THC + 50 mg ANEB-001, read-out: THC plasma Cmax, Geometric Mean): 3.14 ng/mL
Cmax (10 mg THC + 50 mg ANEB-001, read-out: THC plasma Cmax, Mean): 3.4 ng/mL
Cmax (10 mg THC + 50 mg ANEB-001, read-out: THC plasma Cmax, Median): 3.12 ng/mL
Tmax (10 mg THC + 50 mg ANEB-001): 1 h
concentration at 0 h [3]: 0 ng/mL
concentration at 0 h [4]: 0 ng/mL
concentration at 0.33 h [3]: 1.72 ng/mL
concentration at 0.33 h [4]: 0.986 ng/mL
concentration at 0.67 h [3]: 3.54 ng/mL
concentration at 0.67 h [4]: 2.41 ng/mL
concentration at 1 h [3]: 2.7 ng/mL
concentration at 1 h [4]: 1.88 ng/mL
concentration at 2 h [3]: 1.28 ng/mL
concentration at 2 h [4]: 1.05 ng/mL
concentration at 3 h [3]: 0.718 ng/mL
concentration at 3 h [4]: 0.639 ng/mL
concentration at 4 h [3]: 0.446 ng/mL
concentration at 4 h [4]: 0.35 ng/mL
concentration at 5 h [3]: 0.314 ng/mL
concentration at 5 h [4]: 0.228 ng/mL
concentration at 24 h [3]: 0.006 ng/mL
concentration at 24 h [4]: 0 ng/mL
AUC(0-t) (10 mg THC + 100 mg ANEB-001, read-out: THC plasma AUClast, Geometric Mean): 5.3 ng·h/mL
AUC(0-t) (10 mg THC + 100 mg ANEB-001, read-out: THC plasma AUClast, Median): 4.94 ng·h/mL
Cmax (10 mg THC + 100 mg ANEB-001, read-out: THC plasma Cmax, Geometric Mean): 3.08 ng/mL
Cmax (10 mg THC + 100 mg ANEB-001, read-out: THC plasma Cmax, Mean): 3.77 ng/mL
Cmax (10 mg THC + 100 mg ANEB-001, read-out: THC plasma Cmax, Median): 2.46 ng/mL
Tmax (10 mg THC + 100 mg ANEB-001): 0.67 h
concentration at 0 h [5]: 0 ng/mL
concentration at 0 h [6]: 0 ng/mL
concentration at 0.33 h [5]: 1.17 ng/mL
concentration at 0.33 h [6]: 0.776 ng/mL
concentration at 0.67 h [5]: 2.29 ng/mL
concentration at 0.67 h [6]: 1.81 ng/mL
concentration at 1 h [5]: 2.49 ng/mL
concentration at 1 h [6]: 2.27 ng/mL
concentration at 2 h [5]: 1.44 ng/mL
concentration at 2 h [6]: 1.6 ng/mL
concentration at 3 h [5]: 1.01 ng/mL
concentration at 3 h [6]: 0.838 ng/mL
concentration at 4 h [5]: 0.455 ng/mL
concentration at 4 h [6]: 0.443 ng/mL
concentration at 5 h [5]: 0.285 ng/mL
concentration at 5 h [6]: 0.248 ng/mL
concentration at 24 h [5]: 0 ng/mL
concentration at 24 h [6]: 0 ng/mL
AUC(0-t) (10 mg THC + Placebo, read-out: THC plasma AUClast, Geometric Mean): 5.16 ng·h/mL
AUC(0-t) (10 mg THC + Placebo, read-out: THC plasma AUClast, Median): 4.96 ng·h/mL
Cmax (10 mg THC + Placebo, read-out: THC plasma Cmax, Geometric Mean): 2.76 ng/mL
Cmax (10 mg THC + Placebo, read-out: THC plasma Cmax, Mean): 3.15 ng/mL
Tmax (10 mg THC + Placebo): 1 h
